Patent US20090042883A1, “ANTITUMOR AGENT” (KYOWA HAKKOKOGYO CO., priority 2005, published 2009)

Legend:
Assay type in all cases: cell-based
[1] = tested on: human acute myelocytic leukemia MV4; 11 cells; assay: Growth inhibition test on human acute myelocytic leukemia MV4; 11 cells (WST-1, % viability); conditions: test compound 10 μmol/L, cells without test compound = 100%
Method: (§1) Ten thousand cells of human acute myelocytic leukemia MV4; 11 were inoculated into each well of a 96-well microplate (manufactured by Nunc Corp.), and using IMDM medium (culture medium) containing 10% FCS, preculturing was performed in a 5% carbon dioxide incubator at 37° C. for 24 hours. A DMSO solution of each test compound prepared in a concentration of 10 mmol/L was diluted with the culture medium to a final concentration of 10 μmol/L, and the diluted solution was added to each well. The individual wells were further cultured in the 5% carbon dioxide incubator at 37° C. for 72 hours. After completion of the culturing, 10 μL of WST-1 labeled mixture (manufactured by Roche Diagnostic Corp.) was added to each well, and culturing was performed in the 5% carbon dioxide incubator at 37° C. for 1 hour. Using a microplate spectrophotometer (SpectraMax 340PC384; manufactured by Nihon Molecular Devices), the absorbance of each well was measured at 450 nm and 655 nm. The value obtained by subtracting the absorbance at 450 nm from the absorbance at 655 nm (absorbance difference) was calculated for each well. The value for cells not incorporated with a test compound was designated as 100%, and the value at a well not containing cells was designated as 0%. By comparing these values with the absorbance difference obtained at the well in which each test compound was added, the cell viability (% viability) after treatment with the test compound was calculated.

[2] = tested on: human T-cell lymphoma Karpas-299 cells; assay: Growth inhibition test on human T-cell lymphoma Karpas-299 cells (WST-1, % viability); conditions: test compound 10 μmol/L, 72 hours, cells without test compound = 100%
Method: as §1, with “Five” for “Ten”, “T-cell lymphoma Karpas-299” for “acute myelocytic leukemia MV4; 11”, “RPMI” for “IMDM”, “5” for “24”, “2 hours.” for “1 hour.”

[3] = tested on: human lung cancer NCI-H596 cells; assay: Growth inhibition test on human lung cancer NCI-H596 cells (WST-1, % viability); conditions: test compound 10 μmol/L, cells without test compound = 100%
Method: as §1, with “Four” for “Ten”, “lung cancer NCI-H596” for “acute myelocytic leukemia MV4; 11”, “RPMI1640” for “IMDM”, “2 hours.” for “1 hour.”, “(Model 550;” for “(SpectraMax 340PC384;”, “Bio-Rad),” for “Nihon Molecular Devices),”

[4] = tested on: human renal cancer OS-RC-2 cells; assay: Growth inhibition test on human renal cancer OS-RC-2 cells (WST-1, % viability); conditions: test compound 10 μmol/L, 72 hours, cells without test compound = 100%
Method: as §1, with “One” for “Ten”, “renal cancer OS-RC-2” for “acute myelocytic leukemia MV4; 11”, “RPMI1640” for “IMDM”, “2 hours.” for “1 hour.”, “(Model 550;” for “(SpectraMax 340PC384;”, “Bio-Rad),” for “Nihon Molecular Devices),”

[5] = tested on: human prostate cancer 22Rv1 cells; assay: Growth inhibition test on human prostate cancer 22Rv1 cells (WST-1, % viability); conditions: test compound 10 μmol/L, 72 hours, cells without test compound = 100%
Method: as §1, with “Five” for “Ten”, “prostate cancer 22Rv1” for “acute myelocytic leukemia MV4; 11”, “RPMI1640” for “IMDM”, “2 hours.” for “1 hour.”, “(Model 550;” for “(SpectraMax 340PC384;”, “Bio-Rad),” for “Nihon Molecular Devices),”

| SMILES | Viability of tumor cells (% viability), Human acute myelocytic leukemia MV4; 11 cells [1] [%] | Viability of tumor cells (% viability), Human T-cell lymphoma Karpas-299 cells [2] [%] | Viability of tumor cells (% viability), Human lung cancer NCI-H596 cells [3] [%] | Viability of tumor cells (% viability), Human renal cancer OS-RC-2 cells [4] [%] | Viability of tumor cells (% viability), Human prostate cancer 22Rv1 cells [5] [%] |
| --- | --- | --- | --- | --- | --- |
| CCc1c(O)cc(O)c(C(=O)c2ccc(S(C)(=O)=O)cc2)c1CC(=O)N(CCOC)CCOC [Compound 107] | 0 | 14 | 16 | 18 | 5 |
| CCOc1ccc(C(=O)c2c(O)cc(O)c(CC)c2CC(=O)N(CCO)CCOC)cc1 [Compound 122] | 0 | 12 | 15 | 15 | 5 |
| CCc1c(O)cc(O)c(C(=O)c2ccc(OC(C)C)cc2)c1CC(=O)N(CCO)CCOC [Compound 124] | 0 | 14 | 15 | 15 | 5 |
| CCc1c(O)cc(O)c(C(=O)c2ccc(OCCN3CCOCC3)c(OC)c2)c1CC(=O)N(CCOC)CCOC [Compound 125] | 0 | 15 | 17 | 20 | 5 |
| CCc1c(O)cc(O)c(C(=O)c2ccc(OC(C)C)cc2)c1CC(=O)N(CCOC)CCN1CCOCC1 [Compound 134] | 0 | 16 | 17 | 21 | 6 |
| CCc1c(O)cc(O)c(C(=O)c2ccc(OCCN3CCOCC3)c(OC)c2)c1CC(=O)N(CCOC)CCOC.Cl [Compound 139] | 1 | 14 | 16 | 21 | 5 |
| CCc1c(O)cc(O)c(C(=O)c2ccc(C(F)(F)F)cc2)c1CC(=O)N(CCO)CCOC [Compound 144] | 0 | 15 | 14 | 16 | 5 |
| CCc1c(O)cc(O)c(C(=O)c2ccc(OCCCN3CCOCC3)c(OC)c2)c1CC(=O)N(CCOC)CCOC [Compound 149] | 0 | 14 | 14 | 20 | 4 |
| CCc1c(O)cc(O)c(C(=O)c2ccsc2)c1CC(=O)N(CCO)CCOC [Compound 151] | 0 | 13 | 28 | 30 | 5 |
